Patent publication US6239171A, “Tocotrienols and tocotrienol-like compounds and methods for their use” (Lipogenics, Inc., priority 1998, dated 2001)
Several values for one entry are separate records, joined by “and”; a condition that tells them apart may be missing. Equal entries are not always repeated.

Tests used:
HMG-CoA reductase = biological target: T1, HMG-CoA reductase (Homo sapiens, UniProt P04035); test: HMG-CoA reductase activity in isolated chicken hepatocytes; format: cell-based
T1 construct: hepatocytes isolated from livers of 8-week old female chickens; endogenous in cells; host or cells: primary chicken hepatocytes
T1 sequence (P04035 1-888): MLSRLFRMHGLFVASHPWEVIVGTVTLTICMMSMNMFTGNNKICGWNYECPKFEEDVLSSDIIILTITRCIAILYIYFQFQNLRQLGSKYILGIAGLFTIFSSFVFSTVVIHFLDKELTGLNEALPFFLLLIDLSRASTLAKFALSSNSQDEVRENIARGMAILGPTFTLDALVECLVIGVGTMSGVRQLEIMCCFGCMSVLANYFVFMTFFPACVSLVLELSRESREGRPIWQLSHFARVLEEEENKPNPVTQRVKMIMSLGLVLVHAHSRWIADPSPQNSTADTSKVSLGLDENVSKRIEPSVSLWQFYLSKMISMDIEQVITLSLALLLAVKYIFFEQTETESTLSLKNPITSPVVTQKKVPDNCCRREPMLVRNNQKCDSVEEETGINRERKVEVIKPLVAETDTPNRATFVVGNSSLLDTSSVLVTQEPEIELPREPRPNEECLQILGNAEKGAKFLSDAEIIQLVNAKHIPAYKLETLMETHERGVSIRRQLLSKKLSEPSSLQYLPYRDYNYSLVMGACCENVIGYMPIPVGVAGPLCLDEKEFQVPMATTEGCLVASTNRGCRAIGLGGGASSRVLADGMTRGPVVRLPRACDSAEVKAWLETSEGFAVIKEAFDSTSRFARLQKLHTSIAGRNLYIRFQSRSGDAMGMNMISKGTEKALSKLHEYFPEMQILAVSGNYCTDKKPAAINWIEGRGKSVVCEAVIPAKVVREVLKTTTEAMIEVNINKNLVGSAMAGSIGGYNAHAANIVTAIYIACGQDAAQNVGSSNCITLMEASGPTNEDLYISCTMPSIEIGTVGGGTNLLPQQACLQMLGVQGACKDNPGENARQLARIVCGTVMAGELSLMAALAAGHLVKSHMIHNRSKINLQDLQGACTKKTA
Procedure: This study measured the effects of three tocotrienols isolated from rice bran on cholesterol-related enzyme activity in hepatocytes isolated from livers of 8-week old female chickens. The chickens were fed the chick mash diet for 8 weeks. They were then fasted for 40 hours and finally refed for 48 hours before sacrifice. The hepatocytes were then prepared following standard methods.
Each compound was isolated from TRF using the following protocol: A bond Elute amine column was equilibrated with 2 ml hexane. 10 mg of TRF (dissolved in 0.5 ml hexane) was bound to the amine column. The column was washed with 1 ml of hexane, then with 1 ml of 3% isopropanol in hexane. P-21 and P-25 were eluted off the column with 5% isopropanol in hexane. Then using 10% isopropanol in hexane, the impurity P-20 was eluted. α-tocotrienol was also tested.
We next measured the effects of various tocotrienols and tocotrienol-like compounds isolated from rice bran on the activity of HMG-CoA reductase. 20.0 g of stabilized rice bran was extracted with 200.0 ml of methanol to remove various UV absorbing impurities and tocotrienols (6.7 mg total). This step was repeated four times. The remaining residue was dried under vacuum in a desiccator and then heated at 180° C. for 2 hours under 30 psi pressure. Then the dried residue was extracted again with 200.0 ml methanol (3.4 mg). […]

[1] = test system: human peripheral blood neutrophils; test: Release of superoxide in human peripheral blood neutrophils; format: cell-based; details: for 5×10^5 cells/hour, phorbol myrstate acetate
Description: We determined the effect of a known tocotrienol, γ-T3, on the release of superoxide in human peripheral blood neutrophils. Neutrophils are an extracellular source of oxygen free radicals. Once activated, these neutrophils can attach to endothelial tissue where they release a potent toxin, superoxide. Superoxide amplifies the inflammatory response and impairs local circulation of the blood.
The neutrophils we tested were isolated by density centrifugation on Ficoll-Hypaque gradients using conventional methods (see E. Serbinova et al., "Free Radical Recycling and Intramembrane Mobility in the Antioxidant Properties of α-Tocopherol and α-Tocotrienol", Free Rad. Bio. and Med., 10, pp. 263-75 (1991)). The neutrophils were then placed in a 96-well plate. γ-T3 and phorbol myrstate acetate were added to the wells at the same time. The secretion of superoxide anion was measured as the superoxide dismutase-inhibitable reduction of ferricytochrome C.

SMILES	maximum reduction in activity of HMG-CoA reductase (HMG-CoA reductase)	amount of superoxide released (control 19.7 nmole) ([1]; concentration 10^-5) [nmol]	amount of superoxide released (control 19.7 nmole) ([1]; concentration 10^-6) [nmol]
CC(C)=CCC/C(C)=C/CC/C(C)=C/CCC1CCc2cc(O)ccc2O1 (stereo not drawn) [P25, 3,4-dihydro-2-(4,8,12-trimethyltrideca-3'(E),7'(E),11'-trienyl)-2H-1-benzopyran-6-ol]	46.6% and 58.6%	–	–
CC(C)=CCC/C(C)=C/CC/C(C)=C/CCC1(C)CCc2cc(O)c(C)c(C)c2O1 (stereo not drawn) [γ-T3, γ-tocotrienol, reference compound]	–	0	8.0
